Source: US20230348401A1, “Inhibitors of Glucose-6-phosphate Dehydrogenase and Uses Thereof” (The Trustees of Princeton University, priority 2020, published 2023)

Legend:
[1] = test system: CD4+ regulatory T cells (Treg); test: Treg assays; type: cell-based; conditions: CD3/CD28 in the presence of TGF-β
Method: Spleen and peripheral lymph nodes were harvested and processed to single cell suspensions of lymphocytes. Red blood cells were removed with hypotonic lysis. We used magnetic beads (Miltenyi Biotec, San Diego, CA) for isolation of Tconv (CD4^+CD25^-), Treg (CD4^+CD25^+), and antigen presenting cells (CD90.2^-). For cell culture medium, we used RPMI 1640 medium supplemented with 10% fetal bovine serum (FBS), penicillin (100 U/mL), streptomycin (100 µg/mL), and 55 µM β-mercaptoethanol Treg suppression and iTreg polarization were conducted as previously reported. For Treg suppression assays, Tconv were purified and stimulated with irradiated antigen presenting cells plus CD3ε mAb (1 µg/mL, BD Pharmingen). To assess proliferation, Tconv cells were labeled with carboxyfluorescein succinimidyl ester (CFSE), and Treg cells with CellTrace Violet. After 72 h, proliferation of Tconv and Treg cells was determined by flow cytometric analysis of CFSE and CellTrace Violet dilution, respectively. For conversion to Foxp3^+ Tregs, Tconv cells were incubated for 3-5 days with CD3ε/CD28 mAb beads, plus TGF-β (3 ng/mL) and IL-2 (25 U/mL), and analyzed by flow cytometry for Foxp3+ iTreg. Flow cytometry data was captured using Cytoflex (Beckman Coulter, Brea, CA) and analyzed using the FlowJo 10.2 software.

[2] = test system: human neutrophils; test: Neutrophil oxidative burst assay (human); type: cell-based; conditions: PMA, 50 µM
Method: Human neutrophils were isolated from 8 ml of blood collected from healthy donors following the protocol approved by the University of Wisconsin Institutional Review Board (Protocol No. 2019-1031-CP001). Neutrophils were purified using the MACSxpress Whole Blood Neutrophil Isolation Kit (Miltenyi Biotec 130-104-434) followed by erythrocyte depletion (Miltenyi Biotec 130-098-196) according to the manufacturer’s instructions.
Suspended neutrophils were plated in culture wells pre-coated with CELL-TAK™ (Corning), spun at 200 × g for 1 minute with minimal acceleration/deceleration, and then incubated for 1 hour at 37° C. Murine neutrophils were plated at 2×10^5 cells/well in RPMI 1640 media without sodium bicarbonate. Human neutrophils were plated at 5×10^4 cells/well in RPMI 1640 media supplemented with 0.1% human serum albumin. Inhibitor (G6PDi-1, 50 µM) or vehicle control were added just prior to starting the assay. Mouse neutrophils were also treated with rotenone (0.5 µM, BioVision) + antimycin A (0.5 µM, BioVision) at t = 20 minutes. Oxidative burst was stimulated with PMA (100 nM, Cayman Chemical); oxygen consumption rate was measured using the XF-96e extracellular flux analyzer (Seahorse Bioscience).

[3] = target: T1, G6PD (Homo sapiens, UniProt P11413); test: 2H transfer from 1-2H-glucose to NADPH active hydride and C16:0 in HCT116 cells; type: cell-based; parameters: endogenous in cells; host or cells: HCT116; conditions: HCT116 cells
Excerpt: Direct Monitoring of NADPH Produced by the G6PD Reaction. […] NADPH production is compartmentalized, and occurs through reduction of its redox partner NADP^+. G6PD is one of the main enzymes that generates NADPH, and catalyzes the transfer of electrons (in the form of hydride) from glucose-6-phosphate to NADP^+. By installing a deuterium at the “one” position of glucose (1-^2H-glucose), the transfer of that deuterium to the active hydride of NADPH via glucose-6-phosphate can be specifically monitored. Also, a major use of cytosolic NADPH is fat synthesis. Transfer of ^2H from glucose via NADPH into free palmitate (C16:0) requires two NADPH per two-carbon unit addition during its synthesis.
Next, G6PD mediated hydride transfer to NADPH was directly monitored. Specifically, transfer of deuterium from 1-^2H-glucose, via glucose-6-phosphate, to the NADPH’s active hydride was monitored (FIG. 1B). […] The impacted step was G6PD, as no change in substrate (G6P) labeling was observed (FIG. 1E). A major use of cytosolic NADPH is fat synthesis. Transfer of ^2H from glucose via NADPH into palmitate (C16:0), which requires two NADPH per 2-carbon unit addition during its synthesis, was quantified (FIG. 1B).
For all experiments involving stable isotope tracers (e.g., 1-^2H-glucose), the isotope tracer nutrient was substituted for unlabeled nutrient at the same concentration normally found in the base media for a given cell type (e.g., DMEM for HCT116, RPMI for T cells, etc.). In addition, dialyzed FBS was used as a supplement in place of FBS.
Cytosolic NADPH sources were traced, and redox active hydride labeling was calculated, using a previously described strategy. 1-^2H-glucose (which directly traces G6PD) or 3-^2H-glucose (which directly traces PGD) were used for tracing oxPPP contribution to NADPH; 4-^2H-glucose for ME1; [2,3,3,4,4-^2H5]-glutamine, for both ME1 and IDH1; and D2O, to account for solvent exchange.
For analysis of intracellular metabolites by LC-MS, adherent cell lines were plated and grown to 80% confluency in 6-well plates. At the start of an experiment, the appropriate media was added to cells, which included isotope tracers and/or chemical inhibitors as described. Cells were incubated at 37° C. at 5% CO2 for 2 hours (unless otherwise noted). For all experiments involving small molecule agents, DMSO concentrations were <0.2%. After 2 hours, media was removed by aspiration and metabolome extraction was performed (without any wash steps) by the addition of 800 µL of ice cold solvent (40:40:20 acetonitrile:methanol:water + 0.5% formic acid). After a 1-minute incubation on ice, the extract was neutralized by the addition of NH4HCO3 (15% w/v). The samples were incubated at -20° C. for approximately 30 minutes, at which point the wells were scraped and the extract transferred to Eppendorf tubes and centrifuged (15 minutes, 16000 rpm, 4° C.). The resulting supernatant was frozen on dry ice and kept at -80° C. until LC-MS analysis.
Target sequence in this assay (P11413 whole entry): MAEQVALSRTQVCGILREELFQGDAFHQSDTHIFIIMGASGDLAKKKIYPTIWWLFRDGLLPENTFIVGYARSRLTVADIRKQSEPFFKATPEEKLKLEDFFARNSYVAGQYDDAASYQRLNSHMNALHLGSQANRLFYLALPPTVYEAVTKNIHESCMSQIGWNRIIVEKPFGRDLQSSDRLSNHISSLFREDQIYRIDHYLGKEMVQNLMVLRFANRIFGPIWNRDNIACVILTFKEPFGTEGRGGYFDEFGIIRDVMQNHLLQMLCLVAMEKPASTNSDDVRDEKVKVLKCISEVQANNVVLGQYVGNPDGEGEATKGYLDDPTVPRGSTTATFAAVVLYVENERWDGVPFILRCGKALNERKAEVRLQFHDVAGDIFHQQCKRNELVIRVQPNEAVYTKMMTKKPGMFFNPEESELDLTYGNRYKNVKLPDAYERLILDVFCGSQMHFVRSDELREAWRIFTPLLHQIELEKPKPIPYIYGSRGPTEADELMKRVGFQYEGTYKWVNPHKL

[4] = target: T1, G6PD; test: G6PD enzymatic activity by diaphorase-coupled assay
Target sequence in this assay (P11413 28-515): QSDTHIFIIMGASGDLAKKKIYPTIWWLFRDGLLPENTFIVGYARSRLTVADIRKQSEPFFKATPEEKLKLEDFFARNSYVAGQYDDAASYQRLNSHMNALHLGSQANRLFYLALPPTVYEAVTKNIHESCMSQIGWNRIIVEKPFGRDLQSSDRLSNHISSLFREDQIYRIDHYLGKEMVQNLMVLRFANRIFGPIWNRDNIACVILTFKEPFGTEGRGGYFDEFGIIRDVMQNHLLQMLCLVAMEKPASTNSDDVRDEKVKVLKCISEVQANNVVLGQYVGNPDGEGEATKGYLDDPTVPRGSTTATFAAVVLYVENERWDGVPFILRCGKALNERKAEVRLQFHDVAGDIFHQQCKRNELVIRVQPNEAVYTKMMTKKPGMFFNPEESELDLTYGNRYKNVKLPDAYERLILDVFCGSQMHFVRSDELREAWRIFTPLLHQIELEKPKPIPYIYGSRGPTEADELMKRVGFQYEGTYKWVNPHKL

Compound: N#Cc1cc(Nc2ncc3c(n2)CCCCC3=O)cs1 [Compound 2, 4-([5-oxo-6H,7H,8H,9H-cyclohepta[d]pyrimidin-2-yl]amino)thiophene-2-carbonitrile]
- formation and proliferation of Foxp3+ cells [1]: unaffected
- oxidative burst (oxygen consumption rate) [2]: decreased oxidative burst
- 2H transfer from 1-2H-glucose to downstream product C16:0 ([3]; dose-response): dose-dependent decrease
- IC50 ([3]; read-out: IC50, decrease in 2H transfer from 1-2H-glucose to NADPH's active hydride): ~31 µM
- mode of binding to G6PD ([4]; competition assays against both substrates, in vitro dilution experiments): non-competitively and reversibly
- IC50 ([4]; read-out: IC50 (half-maximal inhibitory constant) against human G6PD, coupled enzymatic assay, recombinant human enzyme): 0.07 µM
